Assay results taken from PMC8256334, “Simultaneous Determination of a Novel PD-L1 Inhibitor, IMMH-010, and Its Active Metabolite, YPD-29B, in Rat Biological Matrices by Polarity-Switching Liquid Chromatography-Tandem Mass Spectrometry: Application to ADME Studies” (Frontiers in Pharmacology, 2021).
Several values for one entry are separate records, joined by “and”; a condition that tells them apart may be missing. Identical values can stand only once. Like-named read-outs stand apart in the source and are kept apart here.

Columns and labels:
Stability in rat plasma = assay type: in vitro ADME; details: for Accuracy (RE, %) / Measured conc.: n = 5
Description: Plasma: IMMH-010 is an ester-containing compound. […] Therefore, heparin sodium and NaF were dissolved with 0.9% w/v sodium chloride to prepare a mixture of 0.5% heparin sodium and 500 mM NaF. All blood was withdrawn into EP tubes containing this mixture (1:9 v/v mixture:blood) followed by plasma separation. The plasma standards for IMMH-010 were prepared at 1, 2, 5, 10, 20, 80, 120 and 200 ng/ml, and those for YPD-29B were prepared at 2.5, 5, 10, 20, 50, 400, 600 and 1,000 ng/ml. QC samples were prepared at 1, 2, 40 and 160 ng/ml for IMMH-010 and 2.5, 5, 200 and 800 ng/ml for YPD-29B.
For short-term and long-term stability, plasma samples were kept at 4°C for 4 h and −20°C for 3 months, respectively. To evaluate freeze-thaw stability, samples were frozen at −20°C for 24 h and thawed at 4°C for three cycles. […] Stability assays of IMMH-010 and YPD-29B were performed at two QC levels (high and low QC) (n = 5).

[1] = Excretion study in rats (urine and feces); assay type: in vivo, Sprague-Dawley rats; details: for excretion in feces, % Of administered dose / excretion in urine, % Of administered dose: i.g. IMMH-010 maleate 10 mg/kg, n = 5
Description: (§1) Female Sprague-Dawley rats (200 ± 20 g, Vital River, Beijing, China) were kept in standard environmental conditions. Rats were fasted overnight with free access to water and randomly assigned to different groups before the experiments. All animal protocols were approved by the Institute Animal Care and Welfare Committee of the Institute of Materia Medica, Chinese Academy of Medical Sciences and Peking Union Medical College.
After i. g. administration of IMMH-010 maleate (10 mg/kg), rats were housed in separate metabolite cages to collect their urine and feces: 0–12, 12–24, 24–36, 36–48, and 48–72 h for urine and 0–24, 24–48, and 48–72 h for feces. Fecal samples were dried in air. Urine samples were stored at −20°C prior to analysis.

[2] = PK study in rats after single i.g. administration of IMMH-010 maleate; assay type: in vivo, Sprague-Dawley rats; details: for AUC(0-inf) / AUC(0-t) / Cmax / MRT last / MRT inf / Tmax / half-life: female, Sprague-Dawley, po; for MRT last: read-out: MRT(0-t); for MRT inf: read-out: MRT(0-∞); for Tmax: median (range); for half-life: rat, plasma
Source text: as §1
IMMH-010 maleate was suspended in 0.5% sodium carboxymethyl cellulose. The rats were intragastrically (i.g.) administered IMMH-010 maleate at doses of 10, 30, and 100 mg/kg. Blood samples were withdrawn via the orbital plexus into heparinized tubes with NaF at 5, 15, and 30 min and 1, 2, 4, 6, 8, 12, 24, 36, and 48 h. Plasma was immediately prepared by centrifugation at 5,000 rpm for 10 min. All samples were stored at −20°C prior to analysis. The PK parameters of IMMH-010 and YPD-29B were calculated using the Linear Trapezoidal with Linear Interpolation method by WinNonlin software version 6.3 based on a noncompartmental model (Pharsight Corporation, Mountain View, United States ).

[3] = prepared rat plasma samples, at 15°C in auto-sampler (24 h), spiked 2 ng/ml IMMH-010, 5 ng/ml YPD-29B
[4] = prepared rat plasma samples, at 15°C in auto-sampler (24 h), spiked 160 ng/ml IMMH-010, 800 ng/ml YPD-29B
[5] = prepared rat plasma samples, at 15°C in auto-sampler (48 h), spiked 2 ng/ml IMMH-010, 5 ng/ml YPD-29B
[6] = prepared rat plasma samples, at 15°C in auto-sampler (48 h), spiked 160 ng/ml IMMH-010, 800 ng/ml YPD-29B
[7] = rat plasma, 4°C (4 h), spiked 2 ng/ml IMMH-010, 5 ng/ml YPD-29B
[8] = rat plasma, 4°C (4 h), spiked 160 ng/ml IMMH-010, 800 ng/ml YPD-29B
[9] = rat plasma, stored at −20°C (3 months), spiked 2 ng/ml IMMH-010, 5 ng/ml YPD-29B
[10] = rat plasma, stored at −20°C (3 months), spiked 160 ng/ml IMMH-010, 800 ng/ml YPD-29B
[11] = rat plasma, three freeze–thaw cycles, spiked 2 ng/ml IMMH-010, 5 ng/ml YPD-29B
[12] = rat plasma, three freeze–thaw cycles, spiked 160 ng/ml IMMH-010, 800 ng/ml YPD-29B
[13] = rat plasma, single i.g. IMMH-010 maleate 10 mg/kg, mean ± SD, n = 5
[14] = rat plasma, single i.g. IMMH-010 maleate 30 mg/kg, mean ± SD, n = 5
[15] = rat plasma, single i.g. IMMH-010 maleate 100 mg/kg, mean ± SD, n = 5

SMILES: O=C(O)[C@H](CO)NCc1cc(Cl)c(OCc2cccc(-c3ccccc3)c2Br)cc1OCc1cccnc1 [YPD-29B]
- Accuracy (RE, %) (Stability in rat plasma; [3]): −1.6%
- Measured conc. (Stability in rat plasma; [3]): 4.92 ± 0.25 ng/mL
- Accuracy (RE, %) (Stability in rat plasma; [4]): 5.6%
- Measured conc. (Stability in rat plasma; [4]): 845 ± 13 ng/mL
- Accuracy (RE, %) (Stability in rat plasma; [5]): −12.2%
- Measured conc. (Stability in rat plasma; [5]): 4.39 ± 0.19 ng/mL
- Accuracy (RE, %) (Stability in rat plasma; [6]): −1.1%
- Measured conc. (Stability in rat plasma; [6]): 791 ± 17 ng/mL
- stability during the sample preparation, storage and analysis (Stability in rat plasma; rat plasma: 4°C 4 h, −20°C 3 months, three freeze-thaw cycles, autosampler 10°C 48 h): stable
- Accuracy (RE, %) (Stability in rat plasma; [7]): −4.8%
- Measured conc. (Stability in rat plasma; [7]): 4.76 ± 0.12 ng/mL
- Accuracy (RE, %) (Stability in rat plasma; [8]): 4.0%
- Measured conc. (Stability in rat plasma; [8]): 832 ± 8 ng/mL
- Accuracy (RE, %) (Stability in rat plasma; [9]): −2.6%
- Measured conc. (Stability in rat plasma; [9]): 4.87 ± 0.50 ng/mL
- Accuracy (RE, %) (Stability in rat plasma; [10]): −6.5%
- Measured conc. (Stability in rat plasma; [10]): 748 ± 3 ng/mL
- Accuracy (RE, %) (Stability in rat plasma; [11]): −6.2%
- Measured conc. (Stability in rat plasma; [11]): 4.69 ± 0.21 ng/mL
- Accuracy (RE, %) (Stability in rat plasma; [12]): 3.9%
- Measured conc. (Stability in rat plasma; [12]): 831 ± 51 ng/mL
- excretion in feces, % Of administered dose ([1]; time 24 h): 14.56 ± 8.45 % Of administered dose
- excretion in feces, % Of administered dose ([1]; time 48 h): 19.42 ± 6.85 % Of administered dose
- excretion in feces, % Of administered dose ([1]; time 72 h): 19.65 % Of administered dose and 19.65 ± 6.76 % Of administered dose
- share of the dose recovered in the urine and feces as this analyte ([1]; urine and feces within 72 h, rats, oral IMMH-010 maleate): 20.82%
- excretion in urine, % Of administered dose ([1]; time 12 h): 0.52 ± 0.15 % Of administered dose
- excretion in urine, % Of administered dose ([1]; time 24 h): 0.63 ± 0.15 % Of administered dose
- excretion in urine, % Of administered dose ([1]; time 36 h): 0.71 ± 0.17 % Of administered dose
- excretion in urine, % Of administered dose ([1]; time 48 h): 0.85 ± 0.36 % Of administered dose
- excretion in urine, % Of administered dose ([1]; time 72 h): 1.17 % Of administered dose and 1.17 ± 0.91 % Of administered dose
- AUC(0-inf) [2, 13]: 110 ± 46.6 ng·h/mL
- AUC(0-t) [2, 13]: 94.3 ± 46.3 ng·h/mL
- Cmax [2, 13]: 63.7 ± 29.1 ng/mL
- MRT last [2, 13]: 1.5 ± 0.4 h
- MRT inf [2, 13]: 2.27 ± 0.96 h
- Tmax ([2]; rat plasma, single i.g. IMMH-010 maleate 10 mg/kg, n = 5): 0.5 h
- AUC(0-inf) [2, 14]: 521 ± 114 ng·h/mL
- AUC(0-t) [2, 14]: 503 ± 110 ng·h/mL
- Cmax [2, 14]: 268 ± 43 ng/mL
- MRT last [2, 14]: 1.55 ± 0.14 h
- MRT inf [2, 14]: 2.06 ± 0.55 h
- Tmax ([2]; rat plasma, single i.g. IMMH-010 maleate 30 mg/kg, n = 5): 0.5 h
- AUC(0-inf) [2, 15]: 1640 ng·h/mL
- AUC(0-t) [2, 15]: 1620 ng·h/mL
- Cmax [2, 15]: 569 ± 72 ng/mL
- MRT last [2, 15]: 2.88 ± 0.89 h
- MRT inf [2, 15]: 3.12 ± 0.87 h
- Tmax ([2]; rat plasma, single i.g. IMMH-010 maleate 100 mg/kg, n = 5): 1 h
- half-life ([2]; 10 mg/kg, rat plasma, single i.g. IMMH-010 maleate 10 mg/kg, mean ± SD, n = 5, read-out: t1/2β (converted)): 1.57 ± 1.08 h
- half-life ([2]; 30 mg/kg, rat plasma, single i.g. IMMH-010 maleate 30 mg/kg, mean ± SD, n = 5, read-out: t1/2β (converted)): 3.65 ± 2.77 h
- half-life ([2]; 100 mg/kg, rat plasma, i.g. IMMH-010 maleate 10, 30 and 100 mg/kg, range over doses, read-out: average plasma elimination half-life (t1/2β)): 1.57 to 3.65 h
- half-life ([2]; 100 mg/kg, rat plasma, single i.g. IMMH-010 maleate 100 mg/kg, mean ± SD, n = 5, read-out: t1/2β (converted)): 3.1 ± 1.76 h
- dose dependence of AUC ([2]; rat plasma, dose range 10–100 mg/kg IMMH-010 maleate, oral): proportional to the dose
- time postdose at which the metabolite could be detected in plasma ([2]; rats, after oral administration of IMMH-010 maleate): 5 min
